Assay results taken from ChEMBL document CHEMBL1146912, “Synthesis, radiolabeling, and in vivo evaluation of an 18F-labeled isatin analog for imaging caspase-3 activation in apoptosis” (Bioorg Med Chem Lett, 2006).

Experiments:
Caspase-3 = target: T1, Caspase-3 (Homo sapiens, UniProt P42574); assay: Inhibition of human recombinant caspase 3
T1 sequence (P42574 whole entry): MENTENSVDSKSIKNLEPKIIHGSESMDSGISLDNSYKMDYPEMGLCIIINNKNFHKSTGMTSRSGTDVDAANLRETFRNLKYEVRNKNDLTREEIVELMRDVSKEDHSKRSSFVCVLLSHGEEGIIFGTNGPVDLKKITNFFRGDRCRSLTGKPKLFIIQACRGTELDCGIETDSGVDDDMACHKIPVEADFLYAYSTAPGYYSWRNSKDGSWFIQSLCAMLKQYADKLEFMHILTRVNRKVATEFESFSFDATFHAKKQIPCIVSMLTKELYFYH

Caspase-8 = Caspase-8 (Homo sapiens, UniProt Q14790); assay: Inhibition of human recombinant caspase 8
Sequence of Caspase-8 (Q14790 217-374 limits assumed): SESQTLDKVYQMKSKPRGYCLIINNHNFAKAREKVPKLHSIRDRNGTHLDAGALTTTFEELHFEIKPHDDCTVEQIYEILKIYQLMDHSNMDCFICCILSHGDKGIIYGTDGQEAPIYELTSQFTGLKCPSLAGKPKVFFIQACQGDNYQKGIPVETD
Sequence of Caspase-8 (Q14790 385-479 limits assumed): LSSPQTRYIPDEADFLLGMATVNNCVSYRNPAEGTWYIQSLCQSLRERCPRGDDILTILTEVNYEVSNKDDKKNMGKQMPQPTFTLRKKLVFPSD

Caspase-1 = target: T2, Caspase-1 (Homo sapiens, UniProt P29466); assay: Inhibition of human recombinant caspase 1
T2 sequence (P29466 whole entry): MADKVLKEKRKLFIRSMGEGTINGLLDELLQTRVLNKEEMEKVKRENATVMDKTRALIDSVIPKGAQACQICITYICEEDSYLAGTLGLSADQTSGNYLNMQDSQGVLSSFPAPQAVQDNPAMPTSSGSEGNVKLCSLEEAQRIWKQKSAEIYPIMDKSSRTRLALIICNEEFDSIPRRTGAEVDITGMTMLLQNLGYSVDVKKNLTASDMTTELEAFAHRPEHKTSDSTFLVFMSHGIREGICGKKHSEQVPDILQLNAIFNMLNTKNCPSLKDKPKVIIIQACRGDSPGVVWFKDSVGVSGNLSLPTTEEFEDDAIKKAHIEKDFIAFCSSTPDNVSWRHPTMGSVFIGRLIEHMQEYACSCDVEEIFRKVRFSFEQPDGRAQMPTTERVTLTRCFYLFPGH

Caspase-6 = target: T3, Caspase-6 (Homo sapiens, UniProt P55212); assay: Inhibition of human recombinant caspase 6
T3 sequence (P55212 whole entry): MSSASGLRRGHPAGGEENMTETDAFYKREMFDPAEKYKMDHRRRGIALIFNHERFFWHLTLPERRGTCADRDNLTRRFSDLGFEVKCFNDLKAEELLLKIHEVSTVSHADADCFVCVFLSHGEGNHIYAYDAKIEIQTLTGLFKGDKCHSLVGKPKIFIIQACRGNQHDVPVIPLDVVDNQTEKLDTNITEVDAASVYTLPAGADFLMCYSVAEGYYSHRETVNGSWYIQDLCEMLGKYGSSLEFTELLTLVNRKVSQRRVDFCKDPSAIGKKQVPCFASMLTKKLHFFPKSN

Rattus norvegicus [1] = species: Rattus norvegicus; assay: Increase in uptake in spleen of cycloheximide-treated Sprague-Dawley rat relative to control after 1 hr; type: ADME, organism-based; conditions: in vivo
Rattus norvegicus [2] = species: Rattus norvegicus; assay: Effect on uptake in fat of cycloheximide-treated Sprague-Dawley rat relative to control after 1 hr; type: ADME, organism-based, Adipose tissue; conditions: in vivo
Rattus norvegicus [3] = species: Rattus norvegicus; assay: Increase in uptake in liver of cycloheximide-treated Sprague-Dawley rat relative to control after 1 hr; type: ADME, organism-based; conditions: in vivo

Row | IC50 (Caspase-3) | IC50 (Caspase-8) | IC50 (Caspase-1) | IC50 (Caspase-6) | Activity (Rattus norvegicus [1]) | Activity (Rattus norvegicus [2]) | Activity (Rattus norvegicus [3]) | Compound
1 | 0.0097 µM | > 50 µM | > 50 µM | 3.7 µM |  |  |  | O=C1C(=O)N(Cc2ccc(OCCF)cc2)c2ccc(S(=O)(=O)N3CCC[C@H]3COc3ccccc3)cc21
2 |  |  |  |  | 184% | Not Active | 94% | O=C1C(=O)N(Cc2ccc(OCC[18F])cc2)c2ccc(S(=O)(=O)N3CCC[C@H]3COc3ccccc3)cc21
